Experiments:
[1] = system: Yucatan mini-pigs with a heterozygous MYH7 R403Q mutation; experiment: Chronic MYK-581 in mini-pig genetic model of non-obstructed HCM (cMR imaging, invasive hemodynamics, dobutamine challenge); format: in vivo; conditions: corrected for plasma protein binding and potency differences MYK-581 vs mavacamten
Method: The mini-pigs were treated for at least 12 weeks and were evaluated as shown in Schematic 1 below. […] After ˜14 weeks of treatment, all pigs underwent in vivo cMR imaging for the assessment of LV function and geometry, as well as of myocardial composition via of Late Gadolinium Enhancement (LGE) and T1 mapping techniques including extracellular volume (ECV) assessments. In addition, a subset of animals (MYK: n=6, CTRL: n=5) also underwent terminal invasive hemodynamics assessments, including cardiac output (CO, via thermodilution), load-independent systolic/diastolic function (via LV pressure-volume relationships), and β-adrenergic (β-AR) cardiac reserve (via dobutamine at 5 ug/kg/min IV).
The mini-pig model can be obtained following the method disclosed in a presentation entitled “A Minipig Genetic Model of Hypertrophic Cardiomyopathy Uncovers the Pathophysiological Mechanisms of Disease Evolution”, by E. Green et al., at University of Iowa, Carver College of Medicine.

[2] = system: participants with symptomatic oHCM; experiment: EXPLORER-HCM Phase 3 double blind, randomized, placebo controlled study; format: in vivo, human
Text: A subset of participants consented to participate in a CMR substudy at selected sites. Randomization was stratified according to NYHA functional classification (II or III), current treatment with β-blocker (yes or no), planned type of ergometer used during the study (treadmill or exercise bicycle), and consent for the CMR substudy (yes or no).
1) Screening period (Day −35 to Day −1): Participants will undergo a variety of general, cardiopulmonary, laboratory, symptom, and PRO assessments over 1 to 2 days in order to assess eligibility. Key Screening tests include electrocardiogram (ECG); transthoracic echocardiography (TTE) conducted at rest, with Valsalva maneuver, and post-exercise; as well as cardiopulmonary exercise testing (CPET). The following screening assessments may be repeated, as long as within the 35-days screening window: blood tests, ECG, and/or TTE. Repeat assessments are allowed if central core labs require a repeat submission due to quality and in order to better assess inclusion/exclusion values. Participants who screen fail may be considered for rescreening based on the investigator's discretion, taking into consideration the reason(s) for screen fail. One attempt at rescreening will be allowed, and all procedures must be repeated.
2) Double-blind treatment period (Day 1 [randomization] to Week 30/end of treatment [EOT]): The double-blind treatment period will include a two-step dose titration scheme designed to achieve safe and effective dosing for each participant based on their own response parameters. […] Subsequently, assessments including ECG, PK (trough plasma concentrations), and TTE will be performed at each of 7 study visits, beginning at Week 4, and read by core laboratories. At Week 8 and Week 14, the dose may be increased, decreased, or remain unchanged based upon results of Week 6 and Week 12 assessments, respectively, and based primarily on measurements of provoked left ventricular outflow tract (LVOT) gradient and bounded by a target plasma concentration (PK) range and clinical tolerability (LVEF). At Week 8, the dose may be increased to a maximum daily dose of 10 mg (ie, increase from 5 mg QD to 10 mg QD), and at Week 14 to a maximum daily dose of 15 mg (ie, increase from 10 mg QD to 15 mg QD). Dose increases are designed to be step wise and are not allowed to skip doses (eg, from 5 mg to 15 mg).
At Week 30/EOT, participants will complete CPET and post-exercise TTE. For any participants permanently discontinuing treatment prior to Week 30, an early termination (ET) visit should be conducted as soon as possible, including CPET and post-exercise TTE. Participants with ET will also be encouraged to complete all remaining study visits and assessments, including the Week 30 visit.
3) Posttreatment follow-up period (Week 30/EOT to Week 38/end of study [EOS]): When double-blind treatment ends at Week 30, participants will be contacted by phone at Week 34 and return to the site at Week 38 for an EOS visit. At the EOS visit, specified assessments will be repeated. This posttreatment follow-up period applies only to participants who are receiving study drug after Week 22.
To maintain safety throughout the double-blind treatment period, a clinic visit will occur every 2 to 4 weeks, beginning at Week 4 for an initial evaluation of clinical tolerability and safety. Clinic visits will include but are not limited to clinical evaluation (symptoms, PRO evaluations, adverse event [AE]/serious adverse event [SAE] assessment), ECGs, PK sample, TTEs, and laboratory assessments. Results of TTE performed by study site sonographers at each scheduled visit following randomization should be kept blinded to the investigator and other study site personnel. An exception may occur if left ventricular ejection fraction (LVEF)≤30% is measured at the site, then the investigator will be immediately notified and study drug will be permanently discontinued as described within the protocol. […]

For `CC(C)n1c(=O)cc(N[C@@H](C)c2ccccc2)[nH]c1=O` [mavacamten, (S)-3-Isopropyl-6-((1-phenylethyl)amino)pyrimidine-2, 4(1H,3H)-dione], which “equivalent human plasma concentrations” value [1] is on record?
Its value is 50 to 250 ng/mL.

And the “Response Type 1, n (%)” value ([2]; Type 1 - pVO2 ≥1.5 ml/kg/min and NYHA improved ≥1, mavacamten group (n = 123))?
The value was 41 (33.3) n (%).

What about the “Response Type 2, n (%)” value ([2]; Type 2 - pVO2 ≥3.0 ml/kg/min and no worsening NYHA, mavacamten group (n = 123)) of the same compound?
Its value is 29 (23.6) n (%).

What about the “Met Composite Functional Response, either type: Mavacamten vs Placebo” value ([2]; difference, mavacamten (n = 123) vs placebo (n = 128)) of the same compound?
The value was 19.4%.

And the “participants with temporary discontinuation associated with reduced ejection fraction” value ([2]; in vivo)?
The value was 3.

What about the “patients who achieved a complete response (NYHA 1 and all LVOT gradients below 30 mmHg)” value ([2]; in vivo) of the same compound?
The value was 27%.

What about the “patients who achieved a post-exercise LVOT peak gradient below 30 mmHg” value ([2]; in vivo) of the same compound?
The value was 57%.

And the “subjects with severe TEAEs, %” value ([2]; in vivo)?
Its value is 5.7%.

What about the “Rates of improvement by at least one NYHA class” value ([2]; patients not receiving β blocker(s)) of the same compound?
Its value is 65%.

And the “difference vs placebo in percent of patients that met the primary endpoint” value ([2]; patients not receiving β blocker(s) (n=29))?
Its value is 52.6%.

And the “Rates of improvement by at least one NYHA class” value ([2]; patients receiving β blocker(s))?
The value was 65%.

What about the “difference vs placebo in percent of patients that met the primary endpoint” value ([2]; patients receiving β blocker(s) (n=94)) of the same compound?
Its value is 8.7%.

What about the “patients who achieved NYHA class I status” value ([2]; placebo 21%) of the same compound?
Its value is 65%.

What about the “subjects who experienced SAEs, %” value ([2]; through week 30) of the same compound?
Its value is 8.1%.

What about the “Absence of MR (mitral regurgitation), Mava vs Placebo Difference (95% CI)” value ([2]; vs placebo) of the same compound?
Its value is 9.0 (3.7, 14.3) %.

And the “VE/CO2 slope change from baseline” value ([2]; week 30, non-β blocker subgroup)?
The value was −2.5.

What about the “mean change in pVO2” value ([2]; week 30, those not using β blocker(s)) of the same compound?
The value was 2.2 mL/kg/min.

And the “VE/CO2 slope change from baseline” value ([2]; week 30, β blocker subgroup)?
The value was −2.5.

What about the “mean change in pVO2” value ([2]; week 30, β blocker subgroup) of the same compound?
Its value is 1.1 mL/kg/min.
